Data on two molecules can be found in publication PMC10175918 (Communications Biology, 2023).

Each structure is given as a SMILES string. Read-outs that look alike come from different tables or passages of the source.

Experiment in all cases: TGFα-shedding assay-based GPCR screening with chimeric Gα subunit proteins
Holding throughout (assay type): cell-based

Assay [1] has as its target T1, 348 GPCRs (Homo sapiens, UniProt O00574).
T1 construct: expressed in transfected cells; host or cells: HEK293A

The target of assay [2] is T2, 348 GPCRs (Homo sapiens, UniProt P08588).
T2 construct: expressed in transfected cells; host or cells: HEK293A
T2 sequence (P08588 whole entry): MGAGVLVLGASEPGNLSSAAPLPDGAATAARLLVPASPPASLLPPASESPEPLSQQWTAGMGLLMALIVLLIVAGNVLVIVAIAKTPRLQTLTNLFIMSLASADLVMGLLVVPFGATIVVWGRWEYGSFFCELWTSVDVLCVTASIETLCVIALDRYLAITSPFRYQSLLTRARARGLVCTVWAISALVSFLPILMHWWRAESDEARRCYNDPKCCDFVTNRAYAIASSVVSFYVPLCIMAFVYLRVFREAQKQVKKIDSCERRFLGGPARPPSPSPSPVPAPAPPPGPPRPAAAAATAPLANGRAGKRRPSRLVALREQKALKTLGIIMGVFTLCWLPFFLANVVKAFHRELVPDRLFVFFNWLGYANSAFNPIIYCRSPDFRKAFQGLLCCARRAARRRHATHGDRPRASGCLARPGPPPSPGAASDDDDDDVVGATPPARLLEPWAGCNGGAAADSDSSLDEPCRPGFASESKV

For assay [3], the target named is T3, 348 GPCRs (Homo sapiens, UniProt P13945).
T3 construct: expressed in transfected cells; host or cells: HEK293A
T3 sequence (P13945 whole entry): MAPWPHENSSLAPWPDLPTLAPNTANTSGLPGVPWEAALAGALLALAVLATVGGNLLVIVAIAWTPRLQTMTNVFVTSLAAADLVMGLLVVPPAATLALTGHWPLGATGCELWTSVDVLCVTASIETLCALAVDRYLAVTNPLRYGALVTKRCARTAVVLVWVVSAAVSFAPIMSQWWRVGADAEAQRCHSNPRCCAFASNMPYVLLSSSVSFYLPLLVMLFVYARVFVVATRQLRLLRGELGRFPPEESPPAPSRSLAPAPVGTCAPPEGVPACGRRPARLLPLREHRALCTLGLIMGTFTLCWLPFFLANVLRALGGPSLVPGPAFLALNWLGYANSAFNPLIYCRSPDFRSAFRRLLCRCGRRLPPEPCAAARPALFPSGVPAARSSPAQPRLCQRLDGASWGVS
The note with it: 10µM, Favipiravir 100μM.

Assay [4] addresses T4, 348 GPCRs (Homo sapiens, UniProt P21917).
T4 sequence (P21917 1-419): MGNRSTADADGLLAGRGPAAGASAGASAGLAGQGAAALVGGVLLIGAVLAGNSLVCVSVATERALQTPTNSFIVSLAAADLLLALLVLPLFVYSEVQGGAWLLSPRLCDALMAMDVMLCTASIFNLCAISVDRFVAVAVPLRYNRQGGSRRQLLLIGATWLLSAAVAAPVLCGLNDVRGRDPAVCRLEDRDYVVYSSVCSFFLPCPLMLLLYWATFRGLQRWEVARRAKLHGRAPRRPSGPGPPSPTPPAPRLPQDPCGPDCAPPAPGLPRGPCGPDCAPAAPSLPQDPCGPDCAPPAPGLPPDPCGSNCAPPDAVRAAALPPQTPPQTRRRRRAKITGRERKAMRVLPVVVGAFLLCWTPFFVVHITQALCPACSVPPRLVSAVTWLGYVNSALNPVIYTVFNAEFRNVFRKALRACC
To be noted: 10µM, Favipiravir 100μM.

Assay [5] addresses T5, 348 GPCRs (Homo sapiens, UniProt P30542).
T5 sequence (P30542 1-326): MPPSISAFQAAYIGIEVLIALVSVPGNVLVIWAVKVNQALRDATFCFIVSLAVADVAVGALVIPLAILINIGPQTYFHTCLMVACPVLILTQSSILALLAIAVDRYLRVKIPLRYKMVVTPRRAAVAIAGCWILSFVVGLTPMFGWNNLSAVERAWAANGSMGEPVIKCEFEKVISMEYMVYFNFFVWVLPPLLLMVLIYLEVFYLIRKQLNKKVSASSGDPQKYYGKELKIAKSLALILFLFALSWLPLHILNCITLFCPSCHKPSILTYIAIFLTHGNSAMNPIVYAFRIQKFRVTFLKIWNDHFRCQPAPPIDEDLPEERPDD
The note with it: 10µM, Favipiravir 100μM.

Assay [6] has as its target T6, 348 GPCRs (Homo sapiens, UniProt P41586).
T6 construct: expressed in transfected cells; host or cells: HEK293A
T6 sequence (P41586 21-468): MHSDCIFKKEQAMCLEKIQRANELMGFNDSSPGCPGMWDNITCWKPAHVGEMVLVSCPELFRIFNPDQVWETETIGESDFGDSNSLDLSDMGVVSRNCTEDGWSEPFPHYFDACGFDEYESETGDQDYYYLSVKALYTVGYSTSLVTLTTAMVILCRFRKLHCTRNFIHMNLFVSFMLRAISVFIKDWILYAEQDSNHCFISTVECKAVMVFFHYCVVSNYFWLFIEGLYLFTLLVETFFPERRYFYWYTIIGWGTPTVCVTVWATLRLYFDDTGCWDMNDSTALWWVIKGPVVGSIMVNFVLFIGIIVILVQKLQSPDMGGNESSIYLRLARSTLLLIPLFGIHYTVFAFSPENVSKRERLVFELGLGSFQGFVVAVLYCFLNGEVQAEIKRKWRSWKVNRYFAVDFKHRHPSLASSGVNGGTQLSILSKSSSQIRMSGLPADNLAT
To be noted: 10µM, Favipiravir 100μM.

Assay [7] deals with T7, 348 GPCRs (Homo sapiens, UniProt P41594).
T7 construct: expressed in transfected cells; host or cells: HEK293A
T7 sequence (P41594 21-1212): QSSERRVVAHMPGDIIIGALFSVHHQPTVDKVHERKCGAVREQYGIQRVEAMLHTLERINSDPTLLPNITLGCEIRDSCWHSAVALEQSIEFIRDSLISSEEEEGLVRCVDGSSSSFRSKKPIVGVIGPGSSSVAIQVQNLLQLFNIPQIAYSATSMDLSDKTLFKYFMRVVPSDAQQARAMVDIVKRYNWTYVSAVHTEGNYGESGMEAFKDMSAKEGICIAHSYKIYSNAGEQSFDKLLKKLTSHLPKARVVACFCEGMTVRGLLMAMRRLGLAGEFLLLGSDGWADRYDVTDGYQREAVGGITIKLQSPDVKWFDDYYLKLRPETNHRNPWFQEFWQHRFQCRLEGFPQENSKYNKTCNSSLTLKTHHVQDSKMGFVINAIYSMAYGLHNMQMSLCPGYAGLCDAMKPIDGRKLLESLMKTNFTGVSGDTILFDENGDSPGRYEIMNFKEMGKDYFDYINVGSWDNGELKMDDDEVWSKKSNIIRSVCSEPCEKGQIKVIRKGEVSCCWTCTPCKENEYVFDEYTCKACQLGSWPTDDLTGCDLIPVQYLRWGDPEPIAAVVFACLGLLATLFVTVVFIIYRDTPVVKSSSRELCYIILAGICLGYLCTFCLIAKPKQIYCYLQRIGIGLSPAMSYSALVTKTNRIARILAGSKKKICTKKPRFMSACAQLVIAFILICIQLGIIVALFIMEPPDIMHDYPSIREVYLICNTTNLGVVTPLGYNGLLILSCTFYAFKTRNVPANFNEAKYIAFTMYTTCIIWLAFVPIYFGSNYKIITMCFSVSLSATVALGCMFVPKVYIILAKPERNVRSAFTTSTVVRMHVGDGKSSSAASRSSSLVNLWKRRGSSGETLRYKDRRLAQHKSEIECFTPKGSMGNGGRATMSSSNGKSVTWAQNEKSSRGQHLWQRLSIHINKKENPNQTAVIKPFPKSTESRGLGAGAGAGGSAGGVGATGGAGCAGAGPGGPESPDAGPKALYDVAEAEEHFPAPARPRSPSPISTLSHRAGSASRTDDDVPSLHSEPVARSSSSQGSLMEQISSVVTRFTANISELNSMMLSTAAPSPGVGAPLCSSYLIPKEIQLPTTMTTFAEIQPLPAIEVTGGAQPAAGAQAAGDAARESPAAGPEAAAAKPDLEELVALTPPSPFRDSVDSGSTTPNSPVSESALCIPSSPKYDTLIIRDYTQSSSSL
The note with it: 10µM, Favipiravir 100μM.

Assay [8] has as its target T8, 348 GPCRs (Homo sapiens, UniProt P49238).
T8 construct: expressed in transfected cells; host or cells: HEK293A
T8 sequence (P49238 1-355): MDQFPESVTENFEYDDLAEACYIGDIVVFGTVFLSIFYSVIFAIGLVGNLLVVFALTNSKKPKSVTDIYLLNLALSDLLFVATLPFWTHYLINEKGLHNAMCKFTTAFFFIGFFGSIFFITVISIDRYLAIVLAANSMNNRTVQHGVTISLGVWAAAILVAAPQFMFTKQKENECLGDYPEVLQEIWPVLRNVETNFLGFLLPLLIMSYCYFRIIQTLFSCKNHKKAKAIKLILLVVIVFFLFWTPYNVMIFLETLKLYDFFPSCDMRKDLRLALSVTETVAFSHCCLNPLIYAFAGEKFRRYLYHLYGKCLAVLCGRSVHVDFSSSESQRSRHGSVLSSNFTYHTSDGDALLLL
The note with it: GPCR CX3CR1 (chemokine (C-X3-C motif) receptor 1).

The target in assay [9] is T9, 348 GPCRs (Homo sapiens, UniProt Q13585).
T9 construct: expressed in transfected cells; host or cells: HEK293A
T9 sequence (Q13585 whole entry): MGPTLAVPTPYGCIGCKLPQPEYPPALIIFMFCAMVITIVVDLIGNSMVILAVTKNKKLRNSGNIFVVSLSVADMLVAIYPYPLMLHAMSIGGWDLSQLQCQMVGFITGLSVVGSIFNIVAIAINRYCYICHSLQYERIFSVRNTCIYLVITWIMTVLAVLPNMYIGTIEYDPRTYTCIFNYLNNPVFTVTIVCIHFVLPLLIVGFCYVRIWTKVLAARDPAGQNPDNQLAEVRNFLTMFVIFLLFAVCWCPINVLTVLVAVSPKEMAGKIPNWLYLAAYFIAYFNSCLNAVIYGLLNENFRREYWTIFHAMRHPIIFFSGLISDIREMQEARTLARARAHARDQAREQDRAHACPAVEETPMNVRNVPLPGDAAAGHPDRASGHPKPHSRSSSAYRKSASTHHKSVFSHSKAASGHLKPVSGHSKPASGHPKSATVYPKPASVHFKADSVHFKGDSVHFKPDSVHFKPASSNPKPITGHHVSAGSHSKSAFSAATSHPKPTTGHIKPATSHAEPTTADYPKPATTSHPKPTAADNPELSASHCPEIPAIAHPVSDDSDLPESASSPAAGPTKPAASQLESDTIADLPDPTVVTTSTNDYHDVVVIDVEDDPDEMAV

In assay [10] the target is T10, 348 GPCRs (Homo sapiens, UniProt Q15722).
T10 construct: expressed in transfected cells; host or cells: HEK293A
T10 sequence (Q15722 whole entry): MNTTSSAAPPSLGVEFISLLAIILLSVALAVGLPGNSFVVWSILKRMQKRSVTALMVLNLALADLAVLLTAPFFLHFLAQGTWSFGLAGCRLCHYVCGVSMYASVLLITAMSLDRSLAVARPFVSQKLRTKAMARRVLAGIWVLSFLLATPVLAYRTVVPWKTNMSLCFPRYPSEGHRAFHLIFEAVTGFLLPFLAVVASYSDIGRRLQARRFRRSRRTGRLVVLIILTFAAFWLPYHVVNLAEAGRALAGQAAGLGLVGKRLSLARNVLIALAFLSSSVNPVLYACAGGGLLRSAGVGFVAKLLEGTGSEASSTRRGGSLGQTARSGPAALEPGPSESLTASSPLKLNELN
The note with it: 10µM, Favipiravir 100μM.

Assay [11] addresses T11, 348 GPCRs (Homo sapiens, UniProt Q8TDV2).
T11 construct: expressed in transfected cells; host or cells: HEK293A
To be noted: 10µM, Favipiravir 100μM.

In assay [12] the target is T12, 348 GPCRs (Homo sapiens, UniProt Q9GZQ4).
T12 construct: expressed in transfected cells; host or cells: HEK293A
T12 sequence (Q9GZQ4 whole entry): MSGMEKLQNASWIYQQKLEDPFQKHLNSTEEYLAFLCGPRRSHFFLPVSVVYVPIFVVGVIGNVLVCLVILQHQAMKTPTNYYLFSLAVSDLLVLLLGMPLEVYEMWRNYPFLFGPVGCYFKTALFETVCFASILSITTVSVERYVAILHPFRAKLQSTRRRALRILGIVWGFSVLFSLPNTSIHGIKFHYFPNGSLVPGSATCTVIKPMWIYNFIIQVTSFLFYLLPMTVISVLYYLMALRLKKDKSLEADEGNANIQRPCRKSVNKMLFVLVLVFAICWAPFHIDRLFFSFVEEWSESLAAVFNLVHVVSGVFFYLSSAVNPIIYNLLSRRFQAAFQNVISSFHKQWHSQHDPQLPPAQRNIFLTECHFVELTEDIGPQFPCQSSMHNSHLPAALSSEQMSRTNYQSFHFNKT
The note with it: 10µM, Favipiravir 100μM.

The target of assay [13] is T13, 348 GPCRs (Homo sapiens, UniProt Q9NQS5).
T13 construct: expressed in transfected cells; host or cells: HEK293A
T13 sequence (Q9NQS5 whole entry): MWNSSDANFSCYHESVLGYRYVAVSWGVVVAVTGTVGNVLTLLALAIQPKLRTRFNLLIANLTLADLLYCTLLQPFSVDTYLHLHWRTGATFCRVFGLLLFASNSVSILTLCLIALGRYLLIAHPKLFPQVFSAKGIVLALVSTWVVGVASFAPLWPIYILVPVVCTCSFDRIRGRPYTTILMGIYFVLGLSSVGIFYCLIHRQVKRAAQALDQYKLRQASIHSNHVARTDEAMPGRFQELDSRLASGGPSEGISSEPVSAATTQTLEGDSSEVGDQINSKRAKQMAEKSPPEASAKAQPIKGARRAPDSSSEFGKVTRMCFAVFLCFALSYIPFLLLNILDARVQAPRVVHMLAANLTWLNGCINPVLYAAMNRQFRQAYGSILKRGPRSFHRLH
To be noted: 10µM, Favipiravir 100μM.

T11 sequence (Q8TDV2 whole entry): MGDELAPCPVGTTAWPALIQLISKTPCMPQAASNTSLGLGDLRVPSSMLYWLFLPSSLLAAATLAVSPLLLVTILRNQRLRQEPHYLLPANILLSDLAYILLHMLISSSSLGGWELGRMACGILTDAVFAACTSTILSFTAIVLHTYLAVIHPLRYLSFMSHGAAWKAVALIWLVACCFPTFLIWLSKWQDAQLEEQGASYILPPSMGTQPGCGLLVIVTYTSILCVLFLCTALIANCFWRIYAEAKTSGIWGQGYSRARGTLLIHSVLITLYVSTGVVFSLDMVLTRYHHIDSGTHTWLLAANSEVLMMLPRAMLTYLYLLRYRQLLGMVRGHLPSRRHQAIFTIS
T1 sequence (O00574 whole entry): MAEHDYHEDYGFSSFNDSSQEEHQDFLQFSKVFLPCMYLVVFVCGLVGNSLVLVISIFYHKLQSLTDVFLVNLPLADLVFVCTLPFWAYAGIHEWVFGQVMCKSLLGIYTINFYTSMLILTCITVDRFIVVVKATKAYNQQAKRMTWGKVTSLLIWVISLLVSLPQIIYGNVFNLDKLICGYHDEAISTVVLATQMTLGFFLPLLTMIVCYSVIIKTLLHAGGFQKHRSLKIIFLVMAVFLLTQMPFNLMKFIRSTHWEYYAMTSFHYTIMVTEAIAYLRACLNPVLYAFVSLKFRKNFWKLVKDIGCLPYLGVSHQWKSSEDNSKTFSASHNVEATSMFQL

Take `CC(C)OC(=O)[C@H](C)N[P@](=O)(OC[C@H]1O[C@@H](n2ccc(=O)[nH]c2=O)[C@](C)(F)[C@@H]1O)Oc1ccccc1` [sofosbuvir]: the activation at 10 µM was -0.824% at 348 GPCRs [1] (read-out: % GPCR activation compared to TPA, GPCR CXCR6 (C-X-C motif chemokine receptor 6), 10µM); 1.27% at 348 GPCRs [2] (read-out: % GPCR activation compared to TPA, GPCR β1 (adrenoceptor beta 1), 10µM); -0.333% on 348 GPCRs [3] (read-out: % GPCR activation compared to TPA, ADRB3 (adrenoceptor beta 3)); 3.55% on 348 GPCRs [7] (read-out: % GPCR activation compared to TPA, GRM5 (glutamate receptor, metabotropic 5)); -0.301% at 348 GPCRs [9] (read-out: % GPCR activation compared to TPA, GPCR GPR50 (G Protein-Coupled Receptor 50), 10µM); 0.62% at 348 GPCRs [10] (read-out: % GPCR activation compared to TPA, LTB4R (leukotriene B4 receptor)). In addition, the activation at 10 µM at 348 GPCRs [12] (read-out: % GPCR activation compared to TPA, NMUR2 (neuromedin U receptor 2)) is -4.3%. The activation at 100 µM at 348 GPCRs [4] (read-out: % GPCR activation compared to TPA, D4 (dopamine receptor D4)) was -2.21%; on 348 GPCRs [5] (read-out: % GPCR activation compared to TPA, ADORA1 (adenosine A1 receptor)), 1.9%; at 348 GPCRs [6] (read-out: % GPCR activation compared to TPA, ADCYAP1 (ADCYAP receptor type I)), -0.225%; on 348 GPCRs [11] (read-out: % GPCR activation compared to TPA, GPR148 (G Protein-Coupled Receptor 148)), -1.48%; at 348 GPCRs [13] (read-out: % GPCR activation compared to TPA, GPR84 (G protein-coupled receptor 84)), -3.67%. At 348 GPCRs [8] (10µM), the “% GPCR activation compared to TPA” value came out at 0.2471%.
Regarding `NC(=O)c1nc(F)cnc1O` [favipiravir, 6-fluoro-3-hydroxy-2-pyrazinecarboxamide], the activation at 100 µM on 348 GPCRs [1] (GPCR CXCR6 (C-X-C motif chemokine receptor 6), 100μM, read-out: % GPCR activation compared to TPA) is -1.02%; on 348 GPCRs [2] (GPCR β1 (adrenoceptor beta 1), 100μM, read-out: % GPCR activation compared to TPA) it was -1.4%; at 348 GPCRs [4] (D4 (dopamine receptor D4), read-out: % GPCR activation compared to TPA), 2.6%; at 348 GPCRs [5] (ADORA1 (adenosine A1 receptor), read-out: % GPCR activation compared to TPA) it was -0.249%; at 348 GPCRs [6] (ADCYAP1 (ADCYAP receptor type I), read-out: % GPCR activation compared to TPA) it was -0.29%; at 348 GPCRs [9] (GPCR GPR50 (G Protein-Coupled Receptor 50), 100μM, read-out: % GPCR activation compared to TPA), -0.692%. Moreover, the activation at 100 µM at 348 GPCRs [11] (GPR148 (G Protein-Coupled Receptor 148), read-out: % GPCR activation compared to TPA) was -3.11%; at 348 GPCRs [13] (GPR84 (G protein-coupled receptor 84), read-out: % GPCR activation compared to TPA), -0.768%. The activation at 10 µM was -0.975% at 348 GPCRs [3] (ADRB3 (adrenoceptor beta 3), read-out: % GPCR activation compared to TPA); 0.818% on 348 GPCRs [7] (GRM5 (glutamate receptor, metabotropic 5), read-out: % GPCR activation compared to TPA); -0.299% at 348 GPCRs [10] (LTB4R (leukotriene B4 receptor), read-out: % GPCR activation compared to TPA); -2.41% on 348 GPCRs [12] (NMUR2 (neuromedin U receptor 2), read-out: % GPCR activation compared to TPA). At 348 GPCRs [8] (100μM), the “% GPCR activation compared to TPA” value is reported as 0.06344%.
